Assay results from patent publication US9266871B2, “Trifluoromethyl-substituted fused pyrimidines and their use” (BAYER PHARMA AKTIENGESELLSCHAFT, priority 2013, dated 2016).

Assay: Pharmacokinetic parameters following intravenous and oral administration
Assay type: in vivo, rat
Settings: rats, i.v. 0.3 mg/kg and oral 1 mg/kg
Excerpt: • Klaus Witte, Kai Hu, Johanna Swiatek, Claudia Müssig, Georg Ertl and Björn Lemmer: Experimental heart failure in rats: effects on cardiovascular circadian rhythms and on myocardial β-adrenergic signaling. Cardiovasc Res 47 (2): […], 2000; Kozo Okamoto: Spontaneous hypertension in rats. Int Rev Exp Pathol 7: 227-270, 1969; Maarten van den Buuse: Circadian Rhythms of Blood Pressure, Heart Rate, and Locomotor Activity in Spontaneously Hypertensive Rats as Measured With Radio-Telemetry. Physiology & Behavior 55(4): 783-787, 1994 B-4. Determination of Pharmacokinetic Parameters Following Intravenous and Oral Administration
The pharmacokinetic parameters of the compounds of the formula (I) according to the invention are determined in male CD-1 mice, male Wistar rats and female beagles. Intravenous administration in the case of mice and rats is effected by means of a species-specific plasma/DMSO formulation, and in the case of dogs by means of a water/PEG400/ethanol formulation. In all species, oral administration of the dissolved substance is performed via gavage, based on a water/PEG400/ethanol formulation. The removal of blood from rats is simplified by inserting a silicone catheter into the right Vena jugularis externa prior to substance administration. The operation is effected at least one day prior to the experiment with isofluran anaesthesia and administration of an analgesic ([…]/rimadyl (3/1) 0.1 ml s.c.). The blood is taken (generally more than 10 time points) within a time window including terminal time points of at least 24 to a maximum of 72 hours after substance administration. The blood is removed into heparinized tubes. The blood plasma is then obtained by centrifugation; if required, it can be stored at −20° C. until further processing.
An internal standard (which may also be a chemically unrelated substance) is added to the samples of the compounds of the formula (I) according to the invention, calibration samples and qualifiers, and this is followed by protein precipitation using excess acetonitrile. Addition of a buffer solution matched to the LC conditions, and subsequent vortexing, is followed by centrifugation at 1000 g. The supernatant is analysed by means of LC-MS/MS using C18 reversed-phase columns and variable mobile phase mixtures. The substances are quantified via the peak heights or areas from extracted ion chromatograms of specific selected ion monitoring experiments.
The plasma concentration/time plots determined are used to calculate the pharmacokinetic parameters such as AUC (area under the curve), Cmax, t1/2 (terminal half life), F (bioavailability), MRT (mean residence time) and CL (clearance), using a validated pharmacokinetic calculation programme.
Since the substance quantification is performed in plasma, it is necessary to determine the blood/plasma distribution of the substance in order to be able to adjust the pharmacokinetic parameters correspondingly. For this purpose, a defined amount of substance is incubated in heparinized whole blood of the species in question in a rocking roller mixer for 20 min. After centrifugation at 1000 g, the plasma concentration is measured (by means of LC-MS/MS; see above) and determined by calculating the ratio of the Cblood/Cplasma value.

Compound: C[C@@]1(C(F)(F)F)C(=O)Nc2nc(-c3nn(Cc4ncccc4F)c4ncc(F)cc34)nc(NCCC(F)(F)F)c21 (single isomer, unassigned) [Example 1-1]
- MRT (male, Wistar, rat, plasma): 6.6 h
- half-life (male, Wistar, rat, plasma): 5.9 h
- AUCnorm: 1.77 kg·h/L
- CLblood: 0.70 L/h/kg
- F: 98.8%
